Measured values from PubChem BioAssay (NCI).
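Each compound was tested at five concentrations against cells in 96-well plates for 48 hours. TGI marks complete inhibition of growth.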

test system: LOX IMVI melanoma; assay: inhibition of tumour cell growth, NCI panel, 48 h

SMILES	TGI [µM]
CCOC(=O)C1SC(=Nc2ccc(C)c(C)c2)N=C1C (configuration not stated)	> 100

test system: SF-268 CNS; assay: inhibition of tumour cell growth, NCI panel, 48 h

SMILES	TGI [µM]
Clc1cc(Cl)c2ns[s+]c2c1Cl	> 100
C=C(C)[C@H]1Cc2c(ccc3c2O[C@@H]2COc4cc(OC)c(OC)cc4[C@@H]2C3=O)O1	28.2
COC(=O)[C@@]12C(=O)C=CC(=O)C1C1C(=CC2C)OC2OC3(CCCCC3)OC21 (some centres not stated)	48.6
CC1=CCC(O)C=CC(C)C(O)C(C)C=C(C)C(=O)c2c(O)c(C)cc3c2C(=O)C(N)=C(NC(=O)/C=C\C=C/C=CC(C)C(O)CC1=O)C3=O (configuration not stated)	> 100
COc1ccc(S(=O)(=O)c2ccccc2[N+](=O)[O-])cc1	> 100
CCOC(=O)C1SC(=Nc2ccc(C)c(C)c2)N=C1C (configuration not stated)	> 100
CCCC1=C(CC)C(C(=O)Nc2c(C)cccc2C)=NC(S)N1 (configuration not stated)	> 100

test system: PC-3 prostate; assay: inhibition of tumour cell growth, NCI panel, 48 h

SMILES	TGI [µM]
C=C(C)[C@H]1Cc2c(ccc3c2O[C@@H]2COc4cc(OC)c(OC)cc4[C@@H]2C3=O)O1	47.5

test system: SK-OV-3 ovarian; assay: inhibition of tumour cell growth, NCI panel, 48 h

SMILES	TGI [µM]
Clc1cc(Cl)c2ns[s+]c2c1Cl	> 100
C=C(C)[C@H]1Cc2c(ccc3c2O[C@@H]2COc4cc(OC)c(OC)cc4[C@@H]2C3=O)O1	48.8
COC(=O)[C@@]12C(=O)C=CC(=O)C1C1C(=CC2C)OC2OC3(CCCCC3)OC21 (some centres not stated)	33.9
CC1=CCC(O)C=CC(C)C(O)C(C)C=C(C)C(=O)c2c(O)c(C)cc3c2C(=O)C(N)=C(NC(=O)/C=C\C=C/C=CC(C)C(O)CC1=O)C3=O (configuration not stated)	> 100
COc1ccc(S(=O)(=O)c2ccccc2[N+](=O)[O-])cc1	> 100
CCOC(=O)C1SC(=Nc2ccc(C)c(C)c2)N=C1C (configuration not stated)	> 100

test system: UACC-257 melanoma; assay: inhibition of tumour cell growth, NCI panel, 48 h

SMILES	TGI [µM]
Clc1cc(Cl)c2ns[s+]c2c1Cl	> 100
C=C(C)[C@H]1Cc2c(ccc3c2O[C@@H]2COc4cc(OC)c(OC)cc4[C@@H]2C3=O)O1	36.7
COC(=O)[C@@]12C(=O)C=CC(=O)C1C1C(=CC2C)OC2OC3(CCCCC3)OC21 (some centres not stated)	31.5
CC1=CCC(O)C=CC(C)C(O)C(C)C=C(C)C(=O)c2c(O)c(C)cc3c2C(=O)C(N)=C(NC(=O)/C=C\C=C/C=CC(C)C(O)CC1=O)C3=O (configuration not stated)	> 100
COc1ccc(S(=O)(=O)c2ccccc2[N+](=O)[O-])cc1	> 100
CCOC(=O)C1SC(=Nc2ccc(C)c(C)c2)N=C1C (configuration not stated)	> 100
CCCC1=C(CC)C(C(=O)Nc2c(C)cccc2C)=NC(S)N1 (configuration not stated)	> 100

test system: RXF 393 renal; assay: inhibition of tumour cell growth, NCI panel, 48 h

SMILES	TGI [µM]
Clc1cc(Cl)c2ns[s+]c2c1Cl	> 100
C=C(C)[C@H]1Cc2c(ccc3c2O[C@@H]2COc4cc(OC)c(OC)cc4[C@@H]2C3=O)O1	6.41
COc1ccc(S(=O)(=O)c2ccccc2[N+](=O)[O-])cc1	> 100

test system: HOP-92 NSCLC; assay: inhibition of tumour cell growth, NCI panel, 48 h

SMILES	TGI [µM]
C=C(C)[C@H]1Cc2c(ccc3c2O[C@@H]2COc4cc(OC)c(OC)cc4[C@@H]2C3=O)O1	18.1
CC1=CCC(O)C=CC(C)C(O)C(C)C=C(C)C(=O)c2c(O)c(C)cc3c2C(=O)C(N)=C(NC(=O)/C=C\C=C/C=CC(C)C(O)CC1=O)C3=O (configuration not stated)	> 100
COc1ccc(S(=O)(=O)c2ccccc2[N+](=O)[O-])cc1	> 100
CCOC(=O)C1SC(=Nc2ccc(C)c(C)c2)N=C1C (configuration not stated)	> 100
CCCC1=C(CC)C(C(=O)Nc2c(C)cccc2C)=NC(S)N1 (configuration not stated)	> 100

test system: NCI-H226 lung; assay: inhibition of tumour cell growth, NCI panel, 48 h

SMILES	TGI [µM]
Clc1cc(Cl)c2ns[s+]c2c1Cl	> 100
C=C(C)[C@H]1Cc2c(ccc3c2O[C@@H]2COc4cc(OC)c(OC)cc4[C@@H]2C3=O)O1	31.3
COC(=O)[C@@]12C(=O)C=CC(=O)C1C1C(=CC2C)OC2OC3(CCCCC3)OC21 (some centres not stated)	33.7
CC1=CCC(O)C=CC(C)C(O)C(C)C=C(C)C(=O)c2c(O)c(C)cc3c2C(=O)C(N)=C(NC(=O)/C=C\C=C/C=CC(C)C(O)CC1=O)C3=O (configuration not stated)	> 100
COc1ccc(S(=O)(=O)c2ccccc2[N+](=O)[O-])cc1	> 100
CCOC(=O)C1SC(=Nc2ccc(C)c(C)c2)N=C1C (configuration not stated)	> 100
CCCC1=C(CC)C(C(=O)Nc2c(C)cccc2C)=NC(S)N1 (configuration not stated)	> 100

test system: OVCAR-8 ovarian; assay: inhibition of tumour cell growth, NCI panel, 48 h

SMILES	TGI [µM]
Clc1cc(Cl)c2ns[s+]c2c1Cl	> 100
C=C(C)[C@H]1Cc2c(ccc3c2O[C@@H]2COc4cc(OC)c(OC)cc4[C@@H]2C3=O)O1	10.1
COC(=O)[C@@]12C(=O)C=CC(=O)C1C1C(=CC2C)OC2OC3(CCCCC3)OC21 (some centres not stated)	30.9
CC1=CCC(O)C=CC(C)C(O)C(C)C=C(C)C(=O)c2c(O)c(C)cc3c2C(=O)C(N)=C(NC(=O)/C=C\C=C/C=CC(C)C(O)CC1=O)C3=O (configuration not stated)	> 100
COc1ccc(S(=O)(=O)c2ccccc2[N+](=O)[O-])cc1	> 100
CCOC(=O)C1SC(=Nc2ccc(C)c(C)c2)N=C1C (configuration not stated)	> 100
CCCC1=C(CC)C(C(=O)Nc2c(C)cccc2C)=NC(S)N1 (configuration not stated)	> 100

test system: MOLT-4 leukemia; assay: inhibition of tumour cell growth, NCI panel, 48 h

SMILES	TGI [µM]
Clc1cc(Cl)c2ns[s+]c2c1Cl	> 100
C=C(C)[C@H]1Cc2c(ccc3c2O[C@@H]2COc4cc(OC)c(OC)cc4[C@@H]2C3=O)O1	45.2
COC(=O)[C@@]12C(=O)C=CC(=O)C1C1C(=CC2C)OC2OC3(CCCCC3)OC21 (some centres not stated)	37.5
CC1=CCC(O)C=CC(C)C(O)C(C)C=C(C)C(=O)c2c(O)c(C)cc3c2C(=O)C(N)=C(NC(=O)/C=C\C=C/C=CC(C)C(O)CC1=O)C3=O (configuration not stated)	> 100
COc1ccc(S(=O)(=O)c2ccccc2[N+](=O)[O-])cc1	> 100
CCOC(=O)C1SC(=Nc2ccc(C)c(C)c2)N=C1C (configuration not stated)	> 100
CCCC1=C(CC)C(C(=O)Nc2c(C)cccc2C)=NC(S)N1 (configuration not stated)	> 100

test system: IGROV1 ovarian; assay: inhibition of tumour cell growth, NCI panel, 48 h

SMILES	TGI [µM]
Clc1cc(Cl)c2ns[s+]c2c1Cl	> 100
C=C(C)[C@H]1Cc2c(ccc3c2O[C@@H]2COc4cc(OC)c(OC)cc4[C@@H]2C3=O)O1	> 100
COC(=O)[C@@]12C(=O)C=CC(=O)C1C1C(=CC2C)OC2OC3(CCCCC3)OC21 (some centres not stated)	35.1
CC1=CCC(O)C=CC(C)C(O)C(C)C=C(C)C(=O)c2c(O)c(C)cc3c2C(=O)C(N)=C(NC(=O)/C=C\C=C/C=CC(C)C(O)CC1=O)C3=O (configuration not stated)	> 100
COc1ccc(S(=O)(=O)c2ccccc2[N+](=O)[O-])cc1	> 100
CCOC(=O)C1SC(=Nc2ccc(C)c(C)c2)N=C1C (configuration not stated)	> 100
CCCC1=C(CC)C(C(=O)Nc2c(C)cccc2C)=NC(S)N1 (configuration not stated)	> 100

test system: COLO 205 colon; assay: inhibition of tumour cell growth, NCI panel, 48 h

SMILES	TGI [µM]
Clc1cc(Cl)c2ns[s+]c2c1Cl	> 100
C=C(C)[C@H]1Cc2c(ccc3c2O[C@@H]2COc4cc(OC)c(OC)cc4[C@@H]2C3=O)O1	0.539
COC(=O)[C@@]12C(=O)C=CC(=O)C1C1C(=CC2C)OC2OC3(CCCCC3)OC21 (some centres not stated)	28.4
CC1=CCC(O)C=CC(C)C(O)C(C)C=C(C)C(=O)c2c(O)c(C)cc3c2C(=O)C(N)=C(NC(=O)/C=C\C=C/C=CC(C)C(O)CC1=O)C3=O (configuration not stated)	> 100
COc1ccc(S(=O)(=O)c2ccccc2[N+](=O)[O-])cc1	> 100
CCOC(=O)C1SC(=Nc2ccc(C)c(C)c2)N=C1C (configuration not stated)	> 100
CCCC1=C(CC)C(C(=O)Nc2c(C)cccc2C)=NC(S)N1 (configuration not stated)	> 100

test system: RPMI-8226 leukemia; assay: inhibition of tumour cell growth, NCI panel, 48 h

SMILES	TGI [µM]
C=C(C)[C@H]1Cc2c(ccc3c2O[C@@H]2COc4cc(OC)c(OC)cc4[C@@H]2C3=O)O1	8.84
COC(=O)[C@@]12C(=O)C=CC(=O)C1C1C(=CC2C)OC2OC3(CCCCC3)OC21 (some centres not stated)	26.4
CC1=CCC(O)C=CC(C)C(O)C(C)C=C(C)C(=O)c2c(O)c(C)cc3c2C(=O)C(N)=C(NC(=O)/C=C\C=C/C=CC(C)C(O)CC1=O)C3=O (configuration not stated)	> 100
COc1ccc(S(=O)(=O)c2ccccc2[N+](=O)[O-])cc1	> 100
CCOC(=O)C1SC(=Nc2ccc(C)c(C)c2)N=C1C (configuration not stated)	> 100
CCCC1=C(CC)C(C(=O)Nc2c(C)cccc2C)=NC(S)N1 (configuration not stated)	> 100

test system: OVCAR-4 ovarian; assay: inhibition of tumour cell growth, NCI panel, 48 h

SMILES	TGI [µM]
Clc1cc(Cl)c2ns[s+]c2c1Cl	> 100
C=C(C)[C@H]1Cc2c(ccc3c2O[C@@H]2COc4cc(OC)c(OC)cc4[C@@H]2C3=O)O1	68.5
COC(=O)[C@@]12C(=O)C=CC(=O)C1C1C(=CC2C)OC2OC3(CCCCC3)OC21 (some centres not stated)	30.3
CC1=CCC(O)C=CC(C)C(O)C(C)C=C(C)C(=O)c2c(O)c(C)cc3c2C(=O)C(N)=C(NC(=O)/C=C\C=C/C=CC(C)C(O)CC1=O)C3=O (configuration not stated)	> 100
COc1ccc(S(=O)(=O)c2ccccc2[N+](=O)[O-])cc1	> 100
CCOC(=O)C1SC(=Nc2ccc(C)c(C)c2)N=C1C (configuration not stated)	> 100
CCCC1=C(CC)C(C(=O)Nc2c(C)cccc2C)=NC(S)N1 (configuration not stated)	> 100

test system: HOP-18 NSCLC; assay: inhibition of tumour cell growth, NCI panel, 48 h

SMILES	TGI [µM]
Clc1cc(Cl)c2ns[s+]c2c1Cl	> 100
C=C(C)[C@H]1Cc2c(ccc3c2O[C@@H]2COc4cc(OC)c(OC)cc4[C@@H]2C3=O)O1	> 89.7
COC(=O)[C@@]12C(=O)C=CC(=O)C1C1C(=CC2C)OC2OC3(CCCCC3)OC21 (some centres not stated)	34.6
COc1ccc(S(=O)(=O)c2ccccc2[N+](=O)[O-])cc1	> 100
CCOC(=O)C1SC(=Nc2ccc(C)c(C)c2)N=C1C (configuration not stated)	> 100
CCCC1=C(CC)C(C(=O)Nc2c(C)cccc2C)=NC(S)N1 (configuration not stated)	> 100

test system: TK-10 renal; assay: inhibition of tumour cell growth, NCI panel, 48 h

SMILES	TGI [µM]
Clc1cc(Cl)c2ns[s+]c2c1Cl	> 100
C=C(C)[C@H]1Cc2c(ccc3c2O[C@@H]2COc4cc(OC)c(OC)cc4[C@@H]2C3=O)O1	54.5
COC(=O)[C@@]12C(=O)C=CC(=O)C1C1C(=CC2C)OC2OC3(CCCCC3)OC21 (some centres not stated)	31.6
CC1=CCC(O)C=CC(C)C(O)C(C)C=C(C)C(=O)c2c(O)c(C)cc3c2C(=O)C(N)=C(NC(=O)/C=C\C=C/C=CC(C)C(O)CC1=O)C3=O (configuration not stated)	> 100
COc1ccc(S(=O)(=O)c2ccccc2[N+](=O)[O-])cc1	> 100
CCOC(=O)C1SC(=Nc2ccc(C)c(C)c2)N=C1C (configuration not stated)	> 100
CCCC1=C(CC)C(C(=O)Nc2c(C)cccc2C)=NC(S)N1 (configuration not stated)	> 100

test system: HCT-15 colon; assay: inhibition of tumour cell growth, NCI panel, 48 h

SMILES	TGI [µM]
C=C(C)[C@H]1Cc2c(ccc3c2O[C@@H]2COc4cc(OC)c(OC)cc4[C@@H]2C3=O)O1	40.4
COC(=O)[C@@]12C(=O)C=CC(=O)C1C1C(=CC2C)OC2OC3(CCCCC3)OC21 (some centres not stated)	31.1
CC1=CCC(O)C=CC(C)C(O)C(C)C=C(C)C(=O)c2c(O)c(C)cc3c2C(=O)C(N)=C(NC(=O)/C=C\C=C/C=CC(C)C(O)CC1=O)C3=O (configuration not stated)	> 100
COc1ccc(S(=O)(=O)c2ccccc2[N+](=O)[O-])cc1	> 100
CCOC(=O)C1SC(=Nc2ccc(C)c(C)c2)N=C1C (configuration not stated)	> 100
CCCC1=C(CC)C(C(=O)Nc2c(C)cccc2C)=NC(S)N1 (configuration not stated)	> 100
